Measurements from patent US12582616B2, “Molecular targets for modulation of dissociative and associative states” (The Board of Trustees of the Leland Stanford Junior …, priority 2020, dated 2026).
Entries after “also recorded” stand apart in the source; their conditions may differ.

Legend:
mice [1] = assay: Hot plate test
Protocol: Hot Plate Test: Mice were placed on the hot plate (Bioseb), which was set to 55° C. and surrounded by a clear circular perimeter. Mouse activity was recorded using two cameras from different angles. The experiment ended when the mouse jumped to escape or 90 seconds had elapsed. Care was taken to clean and dry the hot plate apparatus between animals. For optogenetic experiments, mice were connected to patch cords and then returned to a holding cage. Illumination began 30 seconds before mice were placed on the hot plate.

[2] = system: retrosplenial cortex (RSP); assay: Two-photon imaging of retrosplenial cortex; format: in vivo, mouse
Protocol: Mice were anesthetized with isoflurane and the skull above retrosplenial cortex was removed and replaced with a 7 mm circular glass coverslip. For layer 1 experiments, Thy1GcaMP6s mice were used. For layer 2/3 experiments, Cux2-CreER; Ai148 mice were used (tamoxifen dissolved in corn oil was injected intraperitoneally at 0.1 mg/g at least 2 weeks prior to imaging). For layer 5 experiments, Rbp4-Cre mice were injected locally in retrosplenial with 800 nL AAVdj-Ef1a-DIO-GCaMP6f (titer 5E12) at stereotactic coordinates (−3AP, 0.5ML, −0.6DV). Mice were given >=1 week to recover before imaging. Awake, head-fixed imaging was performed on a standard two photon microscope (NeuroLabWare, Los Angeles, CA). A 16x 0.8 NA Nikon objective was immersed in clear ultrasound gel for imaging (Aquasonic, Parker Laboratories); frame rate of 30 Hz. Although we observed oscillations in RSP with 50 mg/kg, we were concerned that 50 mg/kg may be too low a dose to sensitively detect a potentially weaker signal in visual cortex or layer 2/3, and so we used 80 mg/kg in these experiments.
Two-photon tiff stack videos were registered to the average image using the TurboReg ImageJ plug-in using rigid body transformations. […] Contaminating neuropil signal was estimated from an annulus surrounding each soma mask and removed using the function F(t)=Fsoma(t)-0.3*Fneuropil(t), where Fsoma(t) is the somatic DF/F and Fneuropil(t) is the DF/F from an annulus 4 pixels wide surrounding each soma mask. The resulting traces were detrended and z-scored. The full frame fluorescence (used for quantifying layer 1 neuropil oscillations) was computed by summing all of the pixels in each frame on each time point, and then computing DF/F the same way, with no neuropil subtraction step.
Each trace (corresponding to either a fiber photometry signal, a cellular two-photon signal, a widefield regional centroid, a widefield pixel, an sEEG trace, or a smoothed spike rate Neuropixels trace) was z-scored, and the power spectral density (PSD) was then estimated using Welch's method (pwelch( ) in Matlab), with a window size of 10*fs (15*fs for human sEEG) where fs is the sampling rate of the signal. The average band power within a specified band (i.e. 1-3 Hz) was then computed by integrating the PSD estimate (bandpower in Matlab). For displaying the traces of individual cells, traces were each zscored by subtracting the mean value of the trace (across the whole recorded time window) and dividing by the standard deviation of the trace. Unless otherwise indicated, the PSD was computed across the time window from minutes 10 to 11 post-injection.

[3] = system: retrosplenial cortex (RSP); assay: Fiber photometry and widefield imaging of RSP, dose comparison; format: in vivo, mouse
Source text: A 405 nm and 470 nm LED illumination (Thorlabs) was combined (425 nm longpass, Thorlabs DMLP425) and coupled into a fiber optic patch cord (400 μm diameter, 0.48 NA, Doric Lenses) using a longpass dichroic (505 nm, Thorlabs DMLP505) and a fixed-focused coupler/collimator with a standard FC connector (F240FC-A, NA 0.51, f=7.9 mm)^47,48. Each illumination channel was frequency modulated using the sync output from a lock-in amplifier (SR810 DSP, Stanford Research Systems). GCaMP fluorescence was collected through the same patchcord and delivered through a bandpass emission filter (Semrock, FF01-520/35) onto a NewFocus 2151 femtowatt silicon photoreceiver (Newport, DC Low mode). […]
Analysis was performed using custom MATLAB (MathWorks) scripts. […] For quantification, activity traces were extracted from points centered in five cortical regions (visual, somatosensory, parietal, motor, retrosplenial) on the left hemisphere of the brain. […]
Each trace (corresponding to either a fiber photometry signal, a cellular two-photon signal, a widefield regional centroid, a widefield pixel, an sEEG trace, or a smoothed spike rate Neuropixels trace) was z-scored, and the power spectral density (PSD) was then estimated using Welch's method (pwelch( ) in Matlab), with a window size of 10*fs (15*fs for human sEEG) where fs is the sampling rate of the signal. […]

mice [4] = assay: Resident-intruder social interaction assay; format: in vivo, mouse; settings: ketamine, both channel-knockouts vs wild-type
Protocol: Social Interaction Assay: Resident-intruder social interaction was recorded for two minutes. Interactions were defined as close physical proximity behaviors, including sniffing, touching, and following. […] Illumination began 30 seconds before the same-sex intruder mouse was introduced.

mice [5] = assay: Righting reflex assay; format: in vivo, mouse
Source text: Righting Reflex Assay: Mice were held at the neck and tail, rotated to supine position on a flat surface, and quickly released. Time to right was quantified as moment of release to moment when all 4 legs touched the ground. A five second threshold was used to classify righting success (less than 5 seconds) from failure (more than 5 seconds). […] Illumination began for 30 seconds, and then the mouse was swiftly inverted onto the flat surface.

mice [6] = assay: Observation for seizure-like behavior after dissociative doses; format: in vivo, mouse; settings: dissociative doses of ketamine
Source text: One characteristic of seizures is increased synchrony. While the ketamine-induced rhythm involved increased synchrony in neuronal firing, the initiation, spread, maintenance/termination, and behavior were distinguishable from typical seizures.

[7] = 50 mg/kg ketamine, control mice of knockout experiment

`CNC1(c2ccccc2Cl)CCCCC1=O` (stereo not drawn) [ketamine] was tested, and the “affective paw-licking, hot plate” value (mice [1]; 50 mg/kg ketamine, RSP Cre-virus in HCN1-KO mice) was “strikingly restored affective paw-licking”, the “affective paw-licking, hot plate” value (mice [1]; [7]) was “abolished affective paw-licking” and the “reflexive paw-flicks, hot plate” value (mice [1]; [7]) was “preserving reflexive paw-flicks”. The “affective/emotional defensive behavior (paw-lick), hot plate” value (mice [1]; ketamine 25 and 50 mg/kg) was “abolished affective/emotional”, the “motivational defensive behavior (jump-to-escape), hot plate” value (mice [1]; ketamine 25 and 50 mg/kg) was “abolished” and the “reflexive responses (paw-flick), hot plate” value (mice [1]; ketamine dose series up to 50 mg/kg) was “did not reduce reflexive responses”. For the same molecule, the affective behavior (mice [1]; ketamine, GRIN1 knockouts) was “without recovery of affective behavior”, the dissociation-like behavioral effects (mice [1]; ketamine, HCN1 channels removed from retrosplenial cortex) was “selectively abolished both the ketamine-induced rhythm and dissociation-like behavioral effects; also recorded: did not fully elicit the dissociation-like behavioral effects” and the “oscillation and population synchrony in layer 2/3 RSP neurons” value ([2]; Cux2-CreER mice, after ketamine) was “neither oscillating neurons nor population synchrony were observed”. For the same molecule, the “synchronous activity in layer 5 RSP neurons” value ([2]; Rbp4-Cre mice, after ketamine) was “exhibited synchronous activity”, the “spread of ketamine-rhythm across layers and regions” value ([2]; Supplementary Note 2) was “did not spread beyond layer 5 neurons in retrosplenial cortex” and the “oscillation in superficial neuropil, RSP vs neighboring visual cortex” value ([2]; two-photon, cranial window, 80 mg/kg) was “observed the oscillation in RSP but not neighboring visual cortex”. The “1-3 Hz RSP oscillation” value ([3]; ketamine 13 mg/kg, listed as Ketamine) was “not 13 mg/kg”, the “1-3 Hz RSP oscillation” value ([3]; ketamine 25 mg/kg) was “rhythm at 25 mg/kg” and the resident-intruder social interactions (mice [4]) was “modestly-recovered”. For the same molecule, the “consciousness (spontaneous ambulation, response to external stimuli)” value (mice [5]; ketamine >=25 mg/kg, subanesthetic) was “consciousness was maintained”, the “righting of postural inversion” value (mice [5]; ketamine, knockout and wild-type mice) was “all mice successfully-righted postural inversion” and the “seizure-like signs (rigidity, convulsive movements, absence-like states, salivation/rearing/falling)” value (mice [6]) was “no rigidity, convulsive movements, absence-like states, or salivation/rearing/falling were observed”.
